{
  "source": "patent US20060100259A1",
  "about": "“Process for the preparation of substituted triazole compounds” (priority 2004, published 2006)",
  "data": [
    {"units": {"melting point": "°C"}, "values": [
      {"smiles": "Nc1nc(Nc2ccc(S(N)(=O)=O)cc2)nn1C(=O)c1cccc([N+](=O)[O-])c1", "note": "[Compound #5, N^3-[(4-aminosulfonyl)phenyl]-1-(3′-nitrobenzoyl)-1H-1,2,4-triazole-3,5-diamine]", "melting point": "260 to 262"},
      {"smiles": "COc1cccc(C(=O)n2nc(Nc3ccccc3)nc2N)c1", "note": "[Compound #30, N^3-phenyl-1-(3′-methoxybenzoyl)-1,2,4-triazole-3,5-diamine]", "melting point": "174 to 184"},
      {"smiles": "Nc1nc(Nc2ccccc2)nn1C(=O)c1ccco1", "note": "[Compound #31, N^3-phenyl-1-(2-furoyl)-1,2,4-triazole-3,5-diamine]", "melting point": "201 to 202"},
      {"smiles": "Nc1nc(Nc2ccc(S(N)(=O)=O)cc2)nn1C(=O)c1ccc(Cl)cc1", "note": "[Compound #28, N^3-[(4-aminosulfonyl)phenyl]-1-(4′-chlorobenzoyl)-1H-1,2,4-triazole-3,5-diamine]", "melting point": "> 260"},
      {"smiles": "Nc1nc(Nc2ccc(S(N)(=O)=O)cc2)nn1C(=O)c1ccccc1Cl", "note": "[Compound #2, N^3-[(4-aminosulfonyl)phenyl]-1-(2′-chlorobenzoyl)-1H-1,2,4-triazole-3,5-diamine]", "melting point": "237 to 242.5"},
      {"smiles": "Nc1nc(Nc2ccc(S(N)(=O)=O)cc2)nn1C(=O)c1ccc([N+](=O)[O-])cc1", "note": "[Compound #9, N^3-[(4-aminosulfonyl)phenyl]-1-(4′-nitrobenzoyl)-1H-1,2,4-triazole-3,5-diamine]", "melting point": "336 to 338"},
      {"smiles": "Nc1nc(Nc2ccc(S(N)(=O)=O)cc2)nn1C(=O)c1ccc(O)cc1", "note": "[Compound #10, N^3-[(4-aminosulfonyl)phenyl]-1-(4′-hydroxybenzoyl)-1H-1,2,4-triazole-3,5-diamine]", "melting point": "> 300"},
      {"smiles": "Nc1nc(Nc2ccc(S(N)(=O)=O)cc2)nn1C(=O)c1cccc(Br)c1", "note": "[Compound #7, N^3-[(4-aminosulfonyl)phenyl]-1-(3′-bromobenzoyl)-1H-1,2,4-triazole-3,5-diamine]", "melting point": "242 to 244"},
      {"smiles": "Nc1nc(Nc2ccc(S(N)(=O)=O)cc2)nn1C(=O)c1ccco1", "note": "[Compound #17, N^3-[(4-aminosulfonyl)phenyl]-1-(2′-furoyl)-1H-1,2,4-triazole-3,5-diamine]", "melting point": "> 300"},
      {"smiles": "COc1ccccc1C(=O)n1nc(Nc2ccc(S(N)(=O)=O)cc2)nc1N", "note": "[Compound #3, N^3-[(4-aminosulfonyl)phenyl]-1-(2′-methoxybenzoyl)-1H-1,2,4-triazole-3 5-diamine]", "melting point": "217 to 221.5"},
      {"smiles": "COc1ccc(C(=O)n2nc(Nc3ccc(S(N)(=O)=O)cc3)nc2N)cc1", "note": "[Compound #12, N^3-[(4-aminosulfonyl)phenyl]-1-(4′-methoxybenzoyl)-1H-1,2,4-triazole-3,5-diamine]", "melting point": "244.5 to 247.5"},
      {"smiles": "COc1ccccc1C(=O)n1nc(Nc2ccccc2)nc1N", "note": "[Compound #29, N^3-phenyl-1-(2′methoxybenzoyl)-1,2,4-triazole-3,5-diamine]", "melting point": "89.5 to 94"},
      {"smiles": "CC(=O)n1nc(Nc2ccc(S(N)(=O)=O)cc2)nc1N", "note": "[Compound #16, N^3-[(4-aminosulfonyl)phenyl]-1-acetyl-1H-1,2,4-triazole-3,5-diamine]", "melting point": "334 to 336"},
      {"smiles": "Nc1nc(Nc2ccc(S(N)(=O)=O)cc2)nn1C(=O)c1cccc(C(F)(F)F)c1", "note": "[Compound #6, N^3-[(4-aminosulfonyl)phenyl]-1-[3′-(trifluoromethyl)benzoyl]-1H-1,2,4-triazole-3,5-diamine]", "melting point": "251 to 253"},
      {"smiles": "Cc1ccc(C(=O)n2nc(Nc3ccccc3)nc2N)cc1", "note": "[Compound #25, N^3-phenyl-1-(4′-methylbenzoyl)-1,2,4-triazole-3,5-diamine]", "melting point": "222.5 to 224"},
      {"smiles": "Nc1nc(Nc2ccc(S(N)(=O)=O)cc2)nn1C(=O)c1ccccc1Br", "note": "[Compound #4, N^3-[(4-aminosulfonyl)phenyl]-1-(2′-bromobenzoyl)-1H-1,2,4-triazole-3,5-diamine]", "melting point": "246 to 248"}
    ]}
  ]
}
